± gives the standard deviation of the averaged measurements.
compound: O=C(O)C1(C(=O)O)CCC1.[NH2-].[NH2-].[Pt+2] [CARBOPLATIN]; experiment: surviving fraction relative to DMSO-only wells; higher = less growth inhibition; settings: 0.5 nM; exposure time: 5 days
In short: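 A line counted only if its three screens reached replicate Pearson r >0.7 and median Z' >0.3. Tumour cells in log phase were seeded at 250–500 per well in 384-well plates and, after 24 hours, kept in continuous contact with inhibitors at 0.5, 1, 5, 10, 50, 100, 500 and 1000 nM for five days. Surviving fraction was taken from CellTiter-Glo luminescence relative to the median of DMSO-only wells.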

Row | Test System | surviving fraction
1 | ASKA SYNOVIAL | 1.03 ± 0.06
2 | BT20 BREAST | 1.11 ± 0.04
3 | BT549 BREAST | 1.08 ± 0.038
4 | CADOES1 SOFT TISSUE | 0.992 ± 0.13
5 | CAL51 BREAST | 0.974 ± 0.023
6 | CAL72 BONE | 1.05 ± 0.081
7 | CAL120 BREAST | 1.02 ± 0.044
8 | CASKI CERVIX | 0.946 ± 0.064
9 | CCK81 LARGE INTESTINE | 0.883 ± 0.042
10 | CHLA90 AUTONOMIC GANGLIA | 0.925 ± 0.057
11 | CME SYNOVIAL | 1.25 ± 0.15
12 | COLO320DM LARGE INTESTINE | 1.12 ± 0.013
13 | DU4475 BREAST | 1.03 ± 0.064
14 | G292 BONE | 1.01 ± 0.039
15 | H23 LUNG | 1.06 ± 0.038
16 | HCC38 BREAST | 1.07 ± 0.18
17 | HCC78 LUNG | 1.04 ± 0.061
18 | HCC202 BREAST | 1.19 ± 0.33
19 | HCC1806 BREAST | 1.05 ± 0.14

Row | Test System | surviving fraction
20 | HMLE3 BREAST | 1.07 ± 0.033
21 | HMT3552 BREAST | 1.03 ± 0.063
22 | HOS BONE | 1.06 ± 0.013
23 | HOSMNG BONE | 1.06 ± 0.025
24 | HS57T BREAST | 1.03 ± 0.015
25 | HSSYII SYNOVIAL | 0.965 ± 0.035
26 | HT1080 SOFT TISSUE | 1.07 ± 0.024
27 | HU09 BONE | 0.977 ± 0.027
28 | HUO3N1 BONE | 1.08 ± 0.016
29 | JIMT1 BREAST | 0.97 ± 0.037
30 | LM7 BONE | 1.06 ± 0.017
31 | LNCAP PROSTATE | 1.02 ± 0.043
32 | MDAMB134 BREAST | 0.906 ± 0.03
33 | MDAMB157 BREAST | 1.04 ± 0.1
34 | MDAMB231 BREAST | 0.997 ± 0.048
35 | MDAMB361 BREAST | 0.791 ± 0.041
36 | MDAMB436 BREAST | 0.923 ± 0.041
37 | MDAMB468 BREAST | 0.973 ± 0.031

same assay, conditions: 1 nM; exposure time: 5 days

Row | Test System | surviving fraction
38 | 22RV1 PROSTATE | 0.999 ± 0.057
39 | 93VU HEADNECK | 1.13 ± 0.055
40 | 143B BONE | 1.11 ± 0.083
41 | A549 LUNG | 1.08 ± 0.013
42 | ASKA SYNOVIAL | 1.05 ± 0.022
43 | BT20 BREAST | 1.19 ± 0.12
44 | BT549 BREAST | 1.19 ± 0.04
45 | CADOES1 SOFT TISSUE | 0.966 ± 0.11
46 | CAL51 BREAST | 0.924 ± 0.08
47 | CAL72 BONE | 1.03 ± 0.094
48 | CAL120 BREAST | 0.927 ± 0.023
49 | CASKI CERVIX | 0.877 ± 0.018
50 | CCK81 LARGE INTESTINE | 0.866 ± 0.092
51 | CHLA90 AUTONOMIC GANGLIA | 0.943 ± 0.072
52 | CME SYNOVIAL | 1.36 ± 0.039
53 | COLO320DM LARGE INTESTINE | 1.14 ± 0.021
54 | DU4475 BREAST | 0.931 ± 0.032
55 | G292 BONE | 1 ± 0.026
56 | H23 LUNG | 1.08 ± 0.029
57 | HCC38 BREAST | 0.841 ± 0.19
58 | HCC78 LUNG | 0.884 ± 0.23

Row | Test System | surviving fraction
59 | HCC202 BREAST | 1.05 ± 0.058
60 | HCC1806 BREAST | 0.777 ± 0.044
61 | HMLE3 BREAST | 1.1 ± 0.053
62 | HMT3552 BREAST | 0.996 ± 0.11
63 | HOS BONE | 1.05 ± 0.02
64 | HOSMNG BONE | 1.02 ± 0.059
65 | HS57T BREAST | 1.08 ± 0.11
66 | HSSYII SYNOVIAL | 0.957 ± 0.015
67 | HT1080 SOFT TISSUE | 1.1 ± 0.011
68 | HU09 BONE | 0.955 ± 0.056
69 | HUO3N1 BONE | 1.06 ± 0.061
70 | JIMT1 BREAST | 0.949 ± 0.027
71 | LM7 BONE | 1.07 ± 0.051
72 | LNCAP PROSTATE | 0.919 ± 0.079
73 | MDAMB134 BREAST | 0.837 ± 0.13
74 | MDAMB157 BREAST | 0.881 ± 0.024
75 | MDAMB231 BREAST | 0.988 ± 0.019
76 | MDAMB361 BREAST | 0.821 ± 0.11
77 | MDAMB436 BREAST | 0.92 ± 0.019
78 | MDAMB468 BREAST | 0.96 ± 0.067

same assay, conditions: 5 nM; exposure time: 5 days

Row | Test System | surviving fraction
79 | 22RV1 PROSTATE | 1.03 ± 0.051
80 | 93VU HEADNECK | 1.26 ± 0.097
81 | 143B BONE | 1.13 ± 0.06
